In patent US20210017555A1, “METHOD FOR PRODUCING 4-AMINOCINNAMIC ACID, AND VECTOR AND HOST CELL USED IN SAME” (JAPAN SCIENCE AND TECHNOLOGY AGENCY, priority 2018, published 2021):

Columns and labels:
[1] = Deammonase activity of purified enzymes by absorptiometry; assay type: biochemical; details: purified recombinant enzyme 2 mg/mL, 50 mM Tris-HCl pH 8.6, 0.3 to 9.6 mM substrate, 380 nm, 10 minutes
Method: • Apparatus: BECKMAN COULTER DU800 UV/Vis Spectrophotometer • Amount of enzyme: 2mg/mL • Buffer solution: 50mM Tris-HCl buffer (pH=8.6) • Concentration of substrate: 0.3mM to 9.6mM • Volume: 200μL • Measurement wavelength: From 4-nitrophenylalanine to 380 nm 4-nitrocinnamic acid: From phenylalanine to 305 nm cinnamic acid: • Measurement period: 10 minutes • Measurement temperature: 25° C.
Each of the CamPAL-, LiePAL-, and RgPAL-producing Escherichia coli strains was inoculated to 5 mL of LB medium containing 30 mg/L kanamycin sulfate, and cultured at 28° C. for 16 hours (hereinafter also may be referred to as “preculture”). […]
The enzyme activity was measured and quantified by measuring the absorbance of the reaction product at the absorption wavelength for 10 minutes using an absorptiometer.
Specifically, regarding the deammonase activity for phenylalanine, 2 mg/mL of each of the above enzymes was added to 50 mM Tris-HCl buffer (pH=8.6) containing 0.3 to 9.6 mM phenylalanine to cause reaction, and the change in absorbance at a wavelength of 305 nm resulting from the formation of cinnamic acid was measured for 10 minutes. […]

[2] = Resting-cell reaction of PAL-producing E. coli, 4-nitrophenylalanine to 4-nitrocinnamic acid; assay type: cell-based, Escherichia coli; details: resting cells; for amount of 4-nitrocinnamic acid in the reaction supernatant: 24 hours, 28° C., pH 8.5, 20 mM 4-nitrophenylalanine, versus control Escherichia coli
Method: The CamPAL-, LiePAL-, and RgPAL-producing Escherichia coli strains mentioned above were precultured using 3 mL of LB medium containing 40 mg/L kanamycin sulfate at 28° C. for 16 hours with stirring at 300 rpm. 1 mL of this pre-cultured liquid was inoculated to 100 mL of LB medium containing 40 mg/L of kanamycin sulfate, cultured at 30° C. for 4 hours with shaking at 120 rpm, and after the addition of 0.5 mM of IPTG, incubated further for 20 hours. The obtained bacterial cells were washed twice with a reaction buffer (100 mM Tris-HCl buffer, pH 8.5).
The resting cells obtained were suspended in a reaction buffer and reacted at 28° C. with shaking at 300 rpm. 20 mM of 4-nitrophenylalanine was added to the medium every 24 hours while the reaction was continued. The reaction supernatant was periodically collected to quantify 4-nitrophenylalanine and 4-nitrocinnamic acid.
The supernatant was transferred to a centrifuge tube, collected by centrifugation, and the reaction product was quantified using high performance liquid chromatography (HPLC).
The same experiment was also performed using the host Escherichia coli as a control.

[3] = Conversion efficiency by CamPAL at different bacteria mass and substrate mass (resting cells); assay type: cell-based, Escherichia coli; details: cell mass 20 g/L or 30 g/L, substrate mass 21 g/L, 37° C., pH 8.5, 24 hours
Method: The CamPAL-producing Escherichia coli strain described in Example 1 was precultured using 5 mL of LB medium containing 40 mg/L kanamycin sulfate at 28° C. for 16 hours with stirring at 300 rpm. 1 mL of this pre-cultured solution was inoculated to 100 mL of TB medium having the following composition after the addition of 80 mg/L kanamycin sulfate, and cultured at 30° C. for 4 hours with shaking at 120 rpm. After the addition of 0.1 mM of IPTG, the cells were further cultured for 20 hours, recovered from the culture solution by centrifugation, and stored at −80° C. The frozen cells thus obtained were weighed at 10 g/L, 20 g/L and 30 g/L, while the substrate 4-nitrophenylalanine was also weighed at 4.2 g/L, 21 g/L, and 42 g/L.
Each mass of the cells and each mass of the substrate were suspended in a reaction buffer (100 mM Tris-HCl buffer, pH 8.5), and a resting microbial cell reaction was carried out at 37° C. with stirring at 300 rpm. After the reaction for 24 hours, the reaction solution was collected, and the amounts of 4-nitrophenylalanine and 4-nitrocinnamic acid were quantified. For the quantification of each reaction product, the supernatant of the obtained (bacterial cell) reaction solution was transferred to a centrifuge tube, collected by centrifugation, and the reaction product was quantified using the HPLC mentioned above.

[4] = Conversion of 4-nitrophenylalanine to 4-nitrocinnamic acid in 2 L jar fermenter; assay type: cell-based, Escherichia coli; details: 24 hours
Method: The CamPAL-producing Escherichia coli strain described in Example 1 was used (cell mass: 20 g/L to 30 g/L) was used in a reaction of converting the substrate 4-nitrophenylalanine (group weight 21 g/L) to 4-nitrocinnamic acid, using a 2 L jar fermenter (BNR-C-2LS manufactured by Maruhishi Bio Engineering Co., Ltd.) as a reactor.
Specifically, the CamPAL-producing Escherichia coli strain was precultured using 15 mL of LB medium with […] kanamycin sulfate at 28° C. for 16 hours with stirring at 300 rpm. 12 mL of this preculture liquid was inoculated to a 2 L jar fermenter containing 1.2 L TB medium with 80 mg/L kanamycin sulfate, and cultured at 30° C. for 4 hours with aeration of 3.5 L/min and stirring at 500 rpm. […] The mass of bacterial cells calculated from the value of OD600 was 30 g/L.
After completion of the culture, 21 g/L of 4-nitrophenylalanine was added to the culture medium as the substrate, and the pH was adjusted to 8.5 using a 2N NaOH aqueous solution. […] The reaction solution was collected during the reaction, and 4-nitrophenylalanine and 4-nitrocinnamic acid were quantified as follows: the reaction solution was transferred to a centrifuge tube, the supernatant was recovered by centrifugation, and the reaction product was quantified using HPLC under the above conditions.

[5] = Search for carbon source for conversion of 4-nitrocinnamic acid to 4-aminocinnamic acid; assay type: cell-based, Escherichia coli; details: glycerol added at 10% (compared with glucose, fructose), 2 g/L 4-nitrocinnamic acid, pH 8, 37° C., 24 hours
Method: The CamPAL-producing Escherichia coli strain described in Example 1 was first precultured for 16 hours in the same manner as in Example 2. 1 mL of this pre-cultured liquid was inoculated to 100 mL of TB medium containing 80 mg/L kanamycin sulfate, cultured at 30° C. for 4 hours with stirring at 120 rpm, and after the addition of 0.1 mM IPTG, cultured further for 16 hours. 2 g/L of 4-nitrocinnamic acid was added to the resultant culture solution, the pH was adjusted to 8 using 2N NaOH, and glucose, fructose, or glycerol was added as a carbon source at a final concentration of 10%. The cells were cultured at 37° C. for 24 hours with stirring at 300 rpm to cause reaction.
During the reaction, the reaction solution was collected, and 4-aminocinnamic acid was quantified. Specifically, the reaction solution was transferred to a centrifuge tube, the supernatant was recovered by centrifugation, and the reaction product was quantified using the HPLC.

[6] = Conversion of 4-nitrophenylalanine to 4-aminocinnamic acid in 1 L jar fermenter; assay type: cell-based, Escherichia coli; details: glycerol 10%, pH 8.5, 37° C., 36 hours, air flow 0.02 L/min
Method: Conversion of 4-nitrophenylalanine to 4-aminocinnamic acid was carried out using a 1 L jar fermenter (manufactured by Biott: BMJ-01), in the presence of glycerol under the conditions mentioned above. Specifically, 5 mL of the preculture liquid of Example 2 was inoculated to a 1 L jar fermenter containing 0.5 L of TB medium supplemented with 80 mg/L kanamycin sulfate, and cultured at 30° C. for 4 hours, with aeration at 0.7 L/min and stirring at 645 rpm. 0.1 mM IPTG was then added, and the culturing was continued for another 20 hours.
After the completion of the culturing, 7 g/L of 4-nitrophenylalanine and glycerol at a final concentration of 10% were added to the culture solution, and the pH was adjusted to 8.5 with 2N NaOH. The reaction was carried out at 37° C. for 36 hours with an air flow rate of 0.02 L/min and stirring at 645 rpm. When the pH dropped below 8.0, 2N NaOH was added. During the reaction, the reaction solution was sampled, and 4-nitrophenylalanine, 4-nitrocinnamic acid and 4-aminocinnamic acid were quantified.

Substance | capacity to convert 4-nitrophenylalanine to 4-nitrocinnamic acid [1] | conversion of 4-nitrophenylalanine to 4-nitrocinnamic acid over time ([2]; 20 mM 4-nitrophenylalanine added every 24 hours) | amount of 4-nitrocinnamic acid in the reaction supernatant [2] | conversion efficiency of 4-nitrophenylalanine to 4-nitrocinnamic acid (yield) [3] [%] | 4-nitrocinnamic acid converted from 21 g/L of 4-nitrophenylalanine ([4]; 2 L jar fermenter, cell mass 30 g/L, pH 8.5, 37° C., without aeration) [g/L] | 4-nitrocinnamic acid converted from 21 g/L of 4-nitrophenylalanine ([4]; same reaction, aeration rate 0.04 L/min) [g/L] | amount of 4-aminocinnamic acid obtained [5] | 4-aminocinnamic acid produced from 7 g/L of 4-nitrophenylalanine [6] [g/L]
CamPAL: phenylalanine ammonia-lyase derived from Camellia sinensis, SEQ ID NO: 1, expressed in E. coli BL21(DE3) | have a capacity to covert 4-nitrophenylalanine to 4-nitrocinnamic acid | proceeded continuously | significantly higher than that of the control Escherichia coli | ≥ 60 | 18 | 12 | largest amount of 4-aminocinnamic acid was obtained when glycerol was added | 4.7
LiePAL: phenylalanine ammonia-lyase derived from Lithospermum erythrorhizon, SEQ ID NO:3, expressed in E. coli | have a capacity to covert 4-nitrophenylalanine to 4-nitrocinnamic acid |  | significantly higher than that of the control Escherichia coli |  |  |  |  | 
